Measured values reported in US8247211B2, “Glycopeptide antibiotics” (American Cyanamid Company, priority 2001, dated 2012).
Converted amounts (≈) assume the structure as drawn.

Tests used:
Experiment in all cases: In vitro antibacterial evaluation: minimum inhibitory concentration (MIC), broth dilution method
Format in all cases: cell-based
Enterococcus sp. = system: Enterococcus sp.
Procedure, shortened: (§1)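 Using Muller-Hinton II […] and an inoculum of 5×10^5 CFU/mL, antibiotic dilutions from 64 down to 0.06 μg/mL were tested following NCCLS M7-A2. The MIC is the lowest concentration inhibiting growth, including in methicillin-, penicillin- or vancomycin-resistant clinical isolates.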

Staphylococcus sp. = details: broth dilution, 18 hours at 35° C.
Procedure, shortened: as §1

Streptococcus sp. = system: Streptococcus sp.
Procedure, shortened: as §1

Escherichia coli = system: Escherichia coli
Procedure, shortened: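 An MIC is reported for each organism as the least concentration giving inhibition, using broth dilution over 64-0.06 μg/mL with a 5×10^5 CFU/mL inoculum.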

[1] = broth dilution, inoculum 5×10^5 CFU/mL, 18 hours at 35° C.

CC(c1ccccc1)C1NC(=O)CNC(=O)C(CO)NC(=O)C(C(O)C2CNC(=N)N2C2OC(CO)C(O)C(O)C2O)NC(=O)C(C(O)C2CNC(=N)N2)NC(=O)C(Cc2ccc(OC3OC(CO)C(OC4OC5COC(c6ccc(S(C)(=O)=O)cc6)OC5C(O)C4O)C(O)C3O)cc2)NC1=O (stereo not drawn) [Example 157, Cyclo[glycyl-β-methylphenylalanyl-O-[4-O-[4,6-O-(4-(methylsulfonyl)benzylidene)hexopyranosyl]hexopyranosyl]tyrosyl-3-(2-iminoimidazolidin-4-yl)seryl-3-(3-hexopyranosyl-2-iminoimidazolidin-4-yl)serylseryl]]
MIC Enterococcus avium (GC 4558) (Enterococcus sp.; [1]): 64 µg/mL (≈ 43.8 µM) | MIC Enterococcus faecalis (ATCC 29212) (Enterococcus sp.; [1]): >64 µg/mL | MIC Enterococcus faecalis (GC 4552) (Enterococcus sp.; [1]): >64 µg/mL | MIC Enterococcus faecalis (GC 4553) (Enterococcus sp.; [1]): >64 µg/mL | MIC Enterococcus faecalis (GC 4554) (Enterococcus sp.; [1]): >64 µg/mL | MIC Enterococcus faecalis (GC 6189) (Enterococcus sp.; [1]): >64 µg/mL | MIC Enterococcus faecium (GC 2243) (Enterococcus sp.; [1]): 64 µg/mL (≈ 43.8 µM) | MIC Enterococcus faecium (GC 4556) (Enterococcus sp.; [1]): >64 µg/mL | MIC Enterococcus faecium (GC 4557) (Enterococcus sp.; [1]): 8 µg/mL (≈ 5.47 µM) | MIC Enterococcus faecalis (ATCC 29212) (Enterococcus sp.; strain ATCC 29212): >64 µg/mL | MIC Enterococcus faecalis (GC 2242) (Enterococcus sp.; strain GC 2242): 64 µg/mL (≈ 43.8 µM) | MIC Enterococcus faecium (GC 2243) (Enterococcus sp.; strain GC 2243): 64 µg/mL (≈ 43.8 µM) | MIC Enterococcus faecalis (GC 2691) (Enterococcus sp.; strain GC 2691): >64 µg/mL | MIC Enterococcus faecalis (GC 3059) (Enterococcus sp.; strain GC 3059): >64 µg/mL | MIC Enterococcus faecalis (GC 4552) (Enterococcus sp.; strain GC 4552): >64 µg/mL | MIC Enterococcus faecalis (GC 4553) (Enterococcus sp.; strain GC 4553): >64 µg/mL | MIC Enterococcus faecalis (GC 4554) (Enterococcus sp.; strain GC 4554): >64 µg/mL | MIC Enterococcus faecium (GC 4556) (Enterococcus sp.; strain GC 4556): >64 µg/mL | MIC Enterococcus faecium (GC 4557) (Enterococcus sp.; strain GC 4557): 8 µg/mL (≈ 5.47 µM) | MIC Enterococcus avium (GC 4558) (Enterococcus sp.; strain GC 4558): 64 µg/mL (≈ 43.8 µM) | MIC Enterococcus faecalis (GC 6189) (Enterococcus sp.; strain GC 6189): >64 µg/mL | MIC Coagulase Negative Staphylococcus (GC 4547) (Staphylococcus sp.; 5×10^5 CFU/mL): 16 µg/mL (≈ 10.9 µM) | MIC Coagulase Negative Staphylococcus (GC 4548) (Staphylococcus sp.; 5×10^5 CFU/mL): 8 µg/mL (≈ 5.47 µM) | MIC Coagulase Negative Staphylococcus (GC 4549) (Staphylococcus sp.; 5×10^5 CFU/mL): 8 µg/mL (≈ 5.47 µM) | MIC Coagulase Negative Staphylococcus (GC 4551) (Staphylococcus sp.; 5×10^5 CFU/mL): 32 µg/mL (≈ 21.9 µM) | MIC Coagulase Negative Staphylococcus (GC 6257) (Staphylococcus sp.; 5×10^5 CFU/mL): 4 µg/mL (≈ 2.74 µM) | MIC Staphylococcus aureus (ATCC 29213) (Staphylococcus sp.; 5×10^5 CFU/mL): 32 µg/mL (≈ 21.9 µM) | MIC Staphylococcus aureus (GC 1131) (Staphylococcus sp.; 5×10^5 CFU/mL): 32 µg/mL (≈ 21.9 µM) | MIC Staphylococcus aureus (GC 3051) (Staphylococcus sp.; 5×10^5 CFU/mL): 16 µg/mL (≈ 10.9 µM) | MIC Staphylococcus aureus (GC 3053) (Staphylococcus sp.; 5×10^5 CFU/mL): 32 µg/mL (≈ 21.9 µM) | MIC Staphylococcus aureus (GC 4541) (Staphylococcus sp.; 5×10^5 CFU/mL): 16 µg/mL (≈ 10.9 µM) | MIC Staphylococcus aureus (GC 4542) (Staphylococcus sp.; 5×10^5 CFU/mL): 32 µg/mL (≈ 21.9 µM) | MIC Staphylococcus aureus (GC 4544) (Staphylococcus sp.; 5×10^5 CFU/mL): 32 µg/mL (≈ 21.9 µM) | MIC Staphylococcus aureus (GC 4545) (Staphylococcus sp.; 5×10^5 CFU/mL): 16 µg/mL (≈ 10.9 µM) | MIC Staphylococcus aureus-SMITH (GC 4543) (Staphylococcus sp.; 5×10^5 CFU/mL): 16 µg/mL (≈ 10.9 µM) | MIC Staphylococcus haemolyticus (GC 4546) (Staphylococcus sp.; 5×10^5 CFU/mL): 16 µg/mL (≈ 10.9 µM) | MIC Staphylococcus aureus (ATCC 29213) (Staphylococcus sp.; strain ATCC 29213): 32 µg/mL (≈ 21.9 µM) | MIC Staphylococcus aureus (GC 1131) (Staphylococcus sp.; strain GC 1131): 32 µg/mL (≈ 21.9 µM) | MIC Staphylococcus aureus (GC 3051) (Staphylococcus sp.; strain GC 3051): 16 µg/mL (≈ 10.9 µM) | MIC Staphylococcus aureus (GC 3053) (Staphylococcus sp.; strain GC 3053): 32 µg/mL (≈ 21.9 µM) | MIC Staphylococcus aureus (GC 4541) (Staphylococcus sp.; strain GC 4541): 16 µg/mL (≈ 10.9 µM) | MIC Staphylococcus aureus (GC 4542) (Staphylococcus sp.; strain GC 4542): 32 µg/mL (≈ 21.9 µM) | MIC Staphylococcus aureus-SMITH (GC 4543) (Staphylococcus sp.; strain GC 4543): 16 µg/mL (≈ 10.9 µM) | MIC Staphylococcus aureus (GC 4544) (Staphylococcus sp.; strain GC 4544): 32 µg/mL (≈ 21.9 µM) | MIC Staphylococcus aureus (GC 4545) (Staphylococcus sp.; strain GC 4545): 16 µg/mL (≈ 10.9 µM) | MIC Staphylococcus haemolyticus (GC 4546) (Staphylococcus sp.; strain GC 4546): 16 µg/mL (≈ 10.9 µM) | MIC Coagulase Negative Staphylococcus (GC 4547) (Staphylococcus sp.; strain GC 4547): 16 µg/mL (≈ 10.9 µM) | MIC Coagulase Negative Staphylococcus (GC 4548) (Staphylococcus sp.; strain GC 4548): 8 µg/mL (≈ 5.47 µM) | MIC Coagulase Negative Staphylococcus (GC 4549) (Staphylococcus sp.; strain GC 4549): 8 µg/mL (≈ 5.47 µM) | MIC Coagulase Negative Staphylococcus (GC 4551) (Staphylococcus sp.; strain GC 4551): 32 µg/mL (≈ 21.9 µM) | MIC Coagulase Negative Staphylococcus (GC 6257) (Staphylococcus sp.; strain GC 6257): 4 µg/mL (≈ 2.74 µM) | MIC Streptococcus pneumoniae (ATCC 6301) (Streptococcus sp.; strain ATCC 6301): 4 µg/mL (≈ 2.74 µM) | MIC Streptococcus pneumoniae (GC 1894) (Streptococcus sp.; strain GC 1894): 4 µg/mL (≈ 2.74 µM) | MIC Streptococcus pyogenes (GC 4563) (Streptococcus sp.; strain GC 4563): 8 µg/mL (≈ 5.47 µM) | MIC Streptococcus agalactiae (GC 4564) (Streptococcus sp.; strain GC 4564): 16 µg/mL (≈ 10.9 µM) | MIC Streptococcus pneumoniae (GC 4565) (Streptococcus sp.; strain GC 4565): 4 µg/mL (≈ 2.74 µM) | MIC Escherichia coli (ATCC 25922) (Escherichia coli; strain ATCC 25922): >64 µg/mL | MIC Escherichia coli (GC 4559) (Escherichia coli; strain GC 4559): >64 µg/mL
